Patent publication EP4745118A1, “HYDROXAMIC ACID COMPOUND OR PHARMACEUTICALLY ACCEPTABLE SALT THEREOF, AND USE THEREOF AND PREPARATION METHOD THEREFOR” (priority 2023, dated 2025)
Values after ≈ are worked out from the molar mass of the structure shown. Read-outs that look alike come from different tables or passages of the source.

What was measured:
[1] = tested on: Enterobacter cloacae; experiment: In vitro antibacterial activity, agar dilution method (MIC); format: cell-based
Procedure, shortened: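 CLSI agar dilution; inoculum ~10^4 CFU per spot from 0.5 McFarland suspension diluted 10-fold. Plates incubated 35°C for 18 h. MIC taken as lowest drug concentration giving no growth.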

[2] = tested on: Escherichia coli ATCC BAA2469 (CRE, NDM-1-producing); experiment: In vivo antibacterial activity, intraperitoneal infection in mice (survival over 7 days); settings: for effective dose of in vivo antibacterial activity: mice with intraperitoneal infection by Escherichia coli ATCC BAA2469, intravenous; for Animal survival rate / Number of surviving animals: mice, one intravenous administration 1 hour post-infection, 7 days; for Number of surviving animals: 5 animals per group
Method: Mice were randomly grouped based on body weight, with 5 mice in each group, regardless of gender. The infectious bacteria was Escherichia coli ATCC BAA2469 (CRE, NDM-1-producing). The test bacterial solution was diluted with 5% high-activity dry yeast. Mice received intraperitoneal injection of 0.5 mL of 100% minimum lethal dose (100% MLD) bacterial solution. One intravenous administration was given at 1 hour post-infection at a dose volume of 10 mL/kg. Animal survival numbers were observed over 7 days, and survival rates were calculated.

[3] = tested on: Citrobacter freundii; experiment: In vitro antibacterial activity, agar dilution method (MIC); format: cell-based
Procedure, shortened: (§1)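 Agar dilution per CLSI; ~10^4 CFU/spot (0.5 McF, 1:10 in broth); 35°C, 18 h; MIC = lowest conc. with no growth.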

[4] = tested on: Pantoea agglomerans; experiment: as above; format: cell-based
Procedure, shortened: as §1

[5] = tested on: Enterobacter aerogenes; experiment: as above; format: cell-based; settings: Klebsiella aerogenes
Procedure, shortened: as §1

[6] = tested on: Pseudomonas aeruginosa; experiment: as above; format: cell-based
Procedure, shortened: as §1

[7] = tested on: Proteus vulgaris; experiment: as above; format: cell-based
Procedure, shortened: as §1

[8] = tested on: Proteus mirabilis; experiment: as above; format: cell-based
Procedure, shortened: as §1

[9] = tested on: Serratia marcescens; experiment: as above; format: cell-based
Procedure, shortened: as §1

[10] = tested on: Klebsiella pneumoniae; experiment: as above; format: cell-based; settings: Klebsiella pneumoniae
Procedure, shortened: as §1

[11] = tested on: Escherichia coli; experiment: as above; format: cell-based; settings: Escherichia coli
Procedure, shortened: as §1

[12] = tested on: Vero cells; experiment: Vero cytotoxicity (CCK-8); format: cell-based; settings: Chlorocebus sabaeus
Method: All liquid was transferred to a 15 mL centrifuge tube and centrifuged at 800 rpm for 5 min. […] A cell counter was used to measure cell density. Cells were inoculated at 100 µL and a density of 3 × 10^5/mL into a 96-well plate, with 6 replicates per group, and incubated at 37°C for 4 hours to allow cells to adhere to the wall. The compound was twofold continuously diluted with PBS, and 10 µL of the compound with the corresponding concentration was added to the 96-well plate, and shaken and mixed well on a shaker, and then incubated at 37°C for 24 hours. 10 µL of CCK-8 reagent was added to the 96-well plate, mixed thoroughly on a shaker, and incubated at 37°C for 2 hours. A microplate reader was used to measure the absorbance at 450 nm wavelength, and the inhibition rate of the compound on Vero cells was calculated. Table 5 Vero cytotoxicity of 4 optical isomers and control drug

[13] = tested on: Shigella flexneri; experiment: In vitro antibacterial activity, agar dilution method (MIC); format: cell-based; settings: ATCC12022, Shigella flexneri ATCC 12022, 35°C, 18 hours, read-out: MIC
Procedure, shortened: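 Agar dilution per CLSI in MH agar, final drug 0.03–128 µg/mL in twofold steps. About 10^4 CFU spotted per site, 35°C for 18 hours; MIC taken as lowest concentration with no growth.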

[14] = Enterobacter cloacae CDC1000654 (NDM-1-producing), agar dilution, 35°C, 18 hours, read-out: MIC
[15] = ATCC43864, Citrobacter freundii ATCC 43864, agar dilution, 35°C, 18 hours, read-out: MIC
[16] = ATCC27993, Pantoea agglomerans ATCC 27993, agar dilution, 35°C, 18 hours, read-out: MIC
[17] = ATCC13048, Enterobacter aerogenes ATCC 13048, agar dilution, 35°C, 18 hours, read-out: MIC
[18] = Pseudomonas aeruginosa PAO1, agar dilution, 35°C, 18 hours, read-out: MIC
[19] = ATCC29905, Proteus vulgaris ATCC 29905, agar dilution, 35°C, 18 hours, read-out: MIC
[20] = ATCC49565, Proteus mirabilis ATCC 49565, agar dilution, 35°C, 18 hours, read-out: MIC
[21] = ATCC21074, Serratia marcescens ATCC 21074, agar dilution, 35°C, 18 hours, read-out: MIC
[22] = 18 h, Klebsiella pneumoniae 09-20 (mcr-1), agar dilution, 35°C, 18 hours, read-out: MIC
[23] = 18 h, Klebsiella pneumoniae 17-R27 (CRE), agar dilution, 35°C, 18 hours, read-out: MIC
[24] = 18 h, Klebsiella pneumoniae 18-8 (ESBLs-producing), agar dilution, 35°C, 18 hours, read-out: MIC
[25] = ATCC700603, 18 h, Klebsiella pneumoniae ATCC 700603 (ESBLs-producing), agar dilution, 35°C, 18 hours, read-out: MIC
[26] = ATCCBAA2146, 18 h, Klebsiella pneumoniae ATCC BAA-2146 (CRE, NDM-1-producing), agar dilution, 35°C, 18 hours, read-out: MIC
[27] = 18 h, Escherichia coli 13-43 (mcr-1), agar dilution, 35°C, 18 hours, read-out: MIC
[28] = 18 h, Escherichia coli 17-R28 (CRE, NDM-1-producing), agar dilution, 35°C, 18 hours, read-out: MIC
[29] = ATCC2469, 18 h, Escherichia coli ATCC 2469 (CRE, NDM-1-producing), agar dilution, 35°C, 18 hours, read-out: MIC
[30] = ATCC35218, 18 h, Escherichia coli ATCC 35218 (ESBLs-producing), agar dilution, 35°C, 18 hours, read-out: MIC
[31] = Vero cells, 24 hours incubation, CCK-8, read-out: IC50

Row | SMILES | MIC [1, 14] [µg/mL] | effective dose of in vivo antibacterial activity [2] | Animal survival rate ([2]; dose 0.35 mg/kg) [%] | Number of surviving animals ([2]; dose 0.35 mg/kg) [individuals] | Animal survival rate ([2]; dose 1.4 mg/kg) [%] | MIC [3, 15] [µg/mL] | MIC [4, 16] [µg/mL] | MIC [5, 17] [µg/mL] | MIC [6, 18] [µg/mL] | MIC [7, 19] [µg/mL] | MIC [8, 20] [µg/mL] | MIC [9, 21] [µg/mL] | MIC [10, 22] [µg/mL] | MIC [10, 23] [µg/mL] | MIC [10, 24] [µg/mL] | MIC [10, 25] [µg/mL] | MIC [10, 26] [µg/mL] | MIC [11, 27] [µg/mL] | MIC [11, 28] [µg/mL] | MIC [13] [µg/mL] | other results
1 | COC[C@@H]1C[C@H]1C#CC#Cc1ccc(C(=O)N[C@H](C(=O)NO)C(C)(C)N)cc1 [Ia, N-(S)-3-amino-1-hydroxyamino-3-methyl-1-oxobutan-2-yl-4-[[(1R,2R)-2-(methoxymethylene)cyclopropyl]but-1,3-diynyl]benzamide] | 1 (≈ 2.61 µM) | below 1.5 mg/kg | 0 | 0 | 80 | 0.25 (≈ 0.652 µM) | 0.5 (≈ 1.3 µM) | 0.5 (≈ 1.3 µM) | 0.5 (≈ 1.3 µM) | 0.12 (≈ 0.313 µM) | 0.25 (≈ 0.652 µM) | 0.25 (≈ 0.652 µM) | 0.25 (≈ 0.652 µM) | 0.5 (≈ 1.3 µM) | 0.06 (≈ 0.156 µM) | 1 (≈ 2.61 µM) | 1 (≈ 2.61 µM) | 0.12 (≈ 0.313 µM) | 0.12 (≈ 0.313 µM) | 0.06 (≈ 0.156 µM) | Number of surviving animals ([2]; dose 1.4 mg/kg): 4 individuals; MIC [11, 29]: 0.12 µg/mL (≈ 0.313 µM); MIC [11, 30]: 0.12 µg/mL (≈ 0.313 µM); IC50 [12, 31]: > 128 µM
2 | COC[C@H]1C[C@@H]1C#CC#Cc1ccc(C(=O)N[C@H](C(=O)NO)C(C)(C)N)cc1 [Ib, N-(S)-3-amino-1-hydroxyamino-3-methyl-1-oxobutan-2-yl-4-[[(1S,2S)-2-(methoxymethylene)cyclopropyl]but-1,3-diynyl]benzamide] |  | below 1.5 mg/kg |  |  | 60 |  |  |  |  |  |  |  |  |  |  |  |  |  |  | 0.12 (≈ 0.313 µM) | MIC ([1]; Enterobacter cloacae, 18 h): 2 µg/mL (≈ 5.22 µM); MIC ([3]; Citrobacter freundii, ATCC43864, 18 h): 0.25 µg/mL (≈ 0.652 µM); MIC ([4]; Pantoea agglomerans, ATCC27993, 18 h): 1 µg/mL (≈ 2.61 µM); MIC ([5]; ATCC13048, 18 h): 0.5 µg/mL (≈ 1.3 µM); MIC ([6]; Pseudomonas aeruginosa, PAO1, 18 h): 1 µg/mL (≈ 2.61 µM); MIC ([7]; Proteus vulgaris, ATCC29905, 18 h): 0.12 µg/mL (≈ 0.313 µM); MIC ([8]; Proteus mirabilis, ATCC49565, 18 h): 1 µg/mL (≈ 2.61 µM); MIC ([9]; Serratia marcescens, ATCC21074, 18 h): 0.25 µg/mL (≈ 0.652 µM); MIC ([10]; 18 h): 0.5 µg/mL (≈ 1.3 µM); MIC ([10]; 18 h, Klebsiella pneumoniae 09-20 (mcr-1), agar dilution, 35°C): 0.5 µg/mL (≈ 1.3 µM); MIC ([10]; 18 h, Klebsiella pneumoniae 17-R27 (CRE), agar dilution, 35°C): 0.25 µg/mL (≈ 0.652 µM); MIC ([10]; ATCC700603, 18 h): 1 µg/mL (≈ 2.61 µM); MIC ([10]; ATCCBAA2146, 18 h, Klebsiella pneumoniae ATCC BAA-2146 (CRE, NDM-1-producing), agar dilution, 35°C, 18 hours): 2 µg/mL (≈ 5.22 µM); MIC ([11]; 18 h, Escherichia coli 13-43 (mcr-1), agar dilution, 35°C): 0.5 µg/mL (≈ 1.3 µM); MIC ([11]; 18 h, Escherichia coli 17-R28 (CRE, NDM-1-producing), agar dilution, 35°C): 0.25 µg/mL (≈ 0.652 µM); MIC ([11]; ATCC2469, 18 h, Escherichia coli ATCC 2469 (CRE, NDM-1-producing), agar dilution, 35°C, 18 hours): 0.25 µg/mL (≈ 0.652 µM); MIC ([11]; ATCC35218, 18 h): 0.25 µg/mL (≈ 0.652 µM); IC50 ([12]; Vero, 24 h): > 128 µM
3 | COC[C@H]1C[C@H]1C#CC#Cc1ccc(C(=O)N[C@H](C(=O)NO)C(C)(C)N)cc1 [Ic, N-(S)-3-amino-1-hydroxyamino-3-methyl-1-oxobutan-2-yl-4-[[(1R,2S)-2-(methoxymethylene)cyclopropyl]but-1,3-diynyl]benzamide] | 1 (≈ 2.61 µM) | below 1.5 mg/kg | 0 | 0 | 80 | 0.25 (≈ 0.652 µM) | 0.5 (≈ 1.3 µM) | 0.5 (≈ 1.3 µM) | 0.5 (≈ 1.3 µM) | 0.12 (≈ 0.313 µM) | 0.5 (≈ 1.3 µM) | 0.25 (≈ 0.652 µM) | 0.25 (≈ 0.652 µM) | 0.5 (≈ 1.3 µM) | 0.06 (≈ 0.156 µM) | 1 (≈ 2.61 µM) | 2 (≈ 5.22 µM) | 0.25 (≈ 0.652 µM) | 0.12 (≈ 0.313 µM) | 0.06 (≈ 0.156 µM) | MIC [11, 29]: 0.12 µg/mL (≈ 0.313 µM); MIC [11, 30]: 0.12 µg/mL (≈ 0.313 µM); IC50 [12, 31]: > 128 µM
4 | COC[C@@H]1C[C@@H]1C#CC#Cc1ccc(C(=O)N[C@H](C(=O)NO)C(C)(C)N)cc1 [Id, N-(S)-3-amino-1-hydroxyamino-3-methyl-1-oxobutan-2-yl-4-[[(1S,2R)-2-(methoxymethylene)cyclopropyl]but-1,3-diynyl]benzamide] | 1 (≈ 2.61 µM) | below 1.5 mg/kg | 0 | 0 | 60 | 0.25 (≈ 0.652 µM) | 1 (≈ 2.61 µM) | 0.5 (≈ 1.3 µM) | 1 (≈ 2.61 µM) | 0.12 (≈ 0.313 µM) | 1 (≈ 2.61 µM) | 0.25 (≈ 0.652 µM) | 0.5 (≈ 1.3 µM) | 0.5 (≈ 1.3 µM) | 0.5 (≈ 1.3 µM) | 2 (≈ 5.22 µM) | 2 (≈ 5.22 µM) | 0.5 (≈ 1.3 µM) | 0.25 (≈ 0.652 µM) | 0.06 (≈ 0.156 µM) | Animal survival rate ([2]; dose 0.7 mg/kg): 0%; Number of surviving animals ([2]; dose 0.7 mg/kg): 0 individuals; Number of surviving animals ([2]; dose 1.4 mg/kg): 3 individuals; MIC [11, 29]: 0.25 µg/mL (≈ 0.652 µM); MIC [11, 30]: 0.25 µg/mL (≈ 0.652 µM); IC50 [12, 31]: > 128 µM
